In brackets after ≈: the same amount, converted by molar mass.
Key:
Hepatitis C virus [1] = assay: Antiviral activity against HCV GT5a-genotype assessed as inhibition of viral replication; format: functional, organism-based, Hepacivirus hominis
Hepatitis C virus [2] = assay: microbe, parasite or virus in culture; conditions: GT1b-genotype
Hepatitis C virus [3] = assay: Antiviral activity against HCV GT3a-genotype assessed as inhibition of viral replication; format: functional, organism-based, Hepacivirus hominis
Hepatitis C virus [4] = assay: Antiviral activity against HCV GT4a-genotype assessed as inhibition of viral replication; format: functional, organism-based, Hepacivirus hominis
Hepatitis C virus [5] = assay: microbe, parasite or virus in culture; conditions: GT1a-genotype
Hepatitis C virus [6] = assay: Antiviral activity against HCV GT2a-genotype assessed as inhibition of viral replication; format: functional, organism-based, Hepacivirus hominis
Influenza A virus = assay: Antiviral activity against Influenza A virus A/PR/8/34 (PR8) strain infected in MDCK cells assessed as reduction in viral infection incubated for 72 hrs by crystal violet staining based assay; format: functional, organism-based
[7] = molecular target: Polymerase acidic protein (Influenza A virus (A/Puerto Rico/8/1934(H1N1)), UniProt P03433)
in vitro [8] = conditions: human, Caco-2
physchem [9] = conditions: buffer, pH 7.4
Vasopressin V1a receptor = Vasopressin V1a receptor (Homo sapiens, UniProt P37288)
Vasopressin V1a receptor, sequence (P37288 whole entry): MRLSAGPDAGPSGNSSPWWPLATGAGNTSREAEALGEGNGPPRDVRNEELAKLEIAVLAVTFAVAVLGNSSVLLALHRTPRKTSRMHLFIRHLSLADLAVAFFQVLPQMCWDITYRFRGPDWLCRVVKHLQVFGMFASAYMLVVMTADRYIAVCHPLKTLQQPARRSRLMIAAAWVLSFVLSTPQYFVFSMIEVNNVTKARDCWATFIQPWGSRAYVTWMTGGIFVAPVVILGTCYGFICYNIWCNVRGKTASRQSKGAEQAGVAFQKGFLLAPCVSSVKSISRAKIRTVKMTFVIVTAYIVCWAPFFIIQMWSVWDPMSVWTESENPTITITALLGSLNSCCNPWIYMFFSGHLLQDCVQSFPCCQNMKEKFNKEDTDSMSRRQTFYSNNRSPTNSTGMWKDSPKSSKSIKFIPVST

in vitro [10] = conditions: human, Caco-2; remark: listed apart in the source
[11] = human, microsomes
physchem [12] = conditions: octanol/PBS, pH 7.6
[13] = molecular target: T1, Beta-2 adrenergic receptor (Bos taurus, UniProt Q28044); assay: Binding affinity to bovine lung membrane adrenergic beta-2 receptor; format: cell membranes
T1 sequence (Q28044 whole entry): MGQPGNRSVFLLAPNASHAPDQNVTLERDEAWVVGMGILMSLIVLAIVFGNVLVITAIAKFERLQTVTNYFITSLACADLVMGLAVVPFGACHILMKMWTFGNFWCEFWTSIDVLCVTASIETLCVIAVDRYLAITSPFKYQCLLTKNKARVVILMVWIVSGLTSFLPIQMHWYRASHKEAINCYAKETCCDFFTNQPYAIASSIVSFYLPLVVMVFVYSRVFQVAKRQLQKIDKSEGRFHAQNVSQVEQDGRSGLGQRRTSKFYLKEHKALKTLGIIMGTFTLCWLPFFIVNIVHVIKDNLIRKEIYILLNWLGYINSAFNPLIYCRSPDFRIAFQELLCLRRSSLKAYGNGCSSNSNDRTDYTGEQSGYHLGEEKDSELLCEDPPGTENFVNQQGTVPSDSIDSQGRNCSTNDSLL

[14] = molecular target: T2, Beta-1 adrenergic receptor (Rattus norvegicus, UniProt P18090)
T2 sequence (P18090 whole entry): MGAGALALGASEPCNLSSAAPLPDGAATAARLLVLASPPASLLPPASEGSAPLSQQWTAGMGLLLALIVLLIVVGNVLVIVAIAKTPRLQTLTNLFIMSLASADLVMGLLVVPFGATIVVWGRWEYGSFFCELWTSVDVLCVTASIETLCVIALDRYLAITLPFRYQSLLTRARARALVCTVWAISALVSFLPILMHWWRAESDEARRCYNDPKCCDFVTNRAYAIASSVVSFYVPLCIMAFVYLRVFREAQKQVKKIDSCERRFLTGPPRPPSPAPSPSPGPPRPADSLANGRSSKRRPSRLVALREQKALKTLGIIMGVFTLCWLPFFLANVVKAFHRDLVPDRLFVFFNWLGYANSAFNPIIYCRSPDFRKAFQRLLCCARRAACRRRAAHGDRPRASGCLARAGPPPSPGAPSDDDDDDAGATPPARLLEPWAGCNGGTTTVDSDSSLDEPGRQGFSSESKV

[15] = molecular target: T2, Beta-1 adrenergic receptor; remark: listed apart in the source
[16] = molecular target: T1, Beta-2 adrenergic receptor; assay: Antagonist activity at bovine lung membrane adrenergic beta-2 receptor; format: cell membranes
in vitro [17] = conditions: human, liver microsomes
in vitro [18] = conditions: rat, liver microsomes
in vitro [19] = conditions: mouse, liver microsomes

## COC(=O)N[C@H](C(=O)N1CCC[C@H]1c1nc2cc(-c3csc4c(-c5ccc(-c6c[nH]c([C@@H]7CCCN7C(=O)[C@H](NC(=O)OC)c7ccccc7)n6)cc5)csc34)ccc2[nH]1)C(C)C
Hepatitis C virus [1]
  EC50: 0.002 nM
Hepatitis C virus [2]
  EC50: 0.002 nM
Hepatitis C virus [3]
  EC50: 0.1 nM
Hepatitis C virus [4]
  EC50: 0.002 nM
Hepatitis C virus [5]
  EC50: 0.002 nM
Hepatitis C virus [6]
  EC50: 0.002 nM

## CCN1CCC(Cc2ccc(Cl)cc2)(C(=O)/C=C(\O)C(=O)O)CC1
Influenza A virus
  IC50: 1100 nM
[7]
  Ki: 90 nM

## Clc1ccc2c(c1)CCCc1nnc(C3CCN(c4ccccn4)CC3)n1-2
In vitro [8]
  efflux ratio: 1
Physchem [9]
  solubility kinetic: 8.9 µM (≈ 3.38 µg/mL)

## Clc1cnc2n1CCCc1nnc([C@H]3CC[C@H](Oc4ccccn4)CC3)n1-2
Vasopressin V1a receptor
  Ki: 14 nM
In vitro [10]
  Papp A→B: 41 ×10⁻⁶ cm/s
Physchem [9]
  solubility kinetic: 49.6 µM (≈ 19.1 µg/mL)
[11]
  CLH: 1 µL/min/mg

## O=C(CCCCCCC(=O)Nc1ccccc1)NO [VORINOSTAT]
Physchem [12]
  logD: 0.99

## CCO/N=C/C(O)CNC(C)(C)C (centres undefined)
[13]
  Ki: 850 nM
[14]
  Ki: 850 nM
[15]
  IC50: 8320 nM
[16]
  IC50: 269 nM

## Clc1cnc2n1CCCc1nnc(C3CCN(c4ccccn4)CC3)n1-2
In vitro [17]
  microsomal CLint: 4 µL/min/mg
Vasopressin V1a receptor
  Ki: 140 nM
In vitro [18]
  microsomal CLint: 32 µL/min/mg
In vitro [19]
  microsomal CLint: 33 µL/min/mg
Physchem [9]
  solubility kinetic: 93.8 µM (≈ 34.7 µg/mL)

— ChEMBL document CHEMBL5244278, “Bioisosteres of the Phenyl Ring: Recent Strategic Applications in Lead Optimization and Drug Design” (J Med Chem, 2021)
